# Paper PMC5458211, “Mitochondrial VDAC1-based peptides: Attacking oncogenic properties in glioblastoma” (Oncotarget, 2017)
# Non-standard residues stand in square brackets, D forms with d. Residues, ends and D or L forms follow the SMILES beside them.
# Tested on: mitochondrial membrane potential (ΔΨm) in U-87MG cells
# Experiment: Mitochondrial membrane potential (TMRM)
# Format: cell-based, human
# Details: 3 h
# Protocol: Figure 2 Mode of action of VDAC1-based peptides – interacting with- and detaching HK, releasing Cyto c, decreasing ATP level and inducing apoptosis A. Purified HK-II was fluorescently labeled using the NanoTemper protein-labeling Kit BLUE. […] Then, 3-5 μl of the samples were loaded into MST-grade glass capillaries and thermophoresis was measured using a Monolith-NT115 apparatus, as described in Materials and methods available online in Supplemental information. […] The final DMSO concentration in control and peptide-treated cells was 0.07%. Fixed cells were visualized using confocal microscopy (Olympus 1×81), as described in Materials and Methods available online in Supplemental information. […] The levels of HK in the supernatants were quantified and are presented as relative units. D. D-ΔN-Ter-Antp induces mitochondrial inner membrane depolarization analyzed as described in Materials and Methods available online in Supplemental information. […] Cells then were analyzed for Δψ using TMRM. Δψ is presented as percentage of control. […] Release of Cyto c from the mitochondria was analyzed by immunostaining using anti-Cyto c antibodies and confocal microscopy (Olympus 1×81) as described in Materials and Methods available online in Supplemental information. […] Quantification of apoptosis in control and peptide's treated cells are presented bellow the images. […]
structure (smiles),measurement,value
CC[C@@H](C)[C@@H](NC(=O)[C@@H](CCCCN)NC(=O)[C@H](NC(=O)[C@@H](CCC(N)=O)NC(=O)[C@@H](CCCNC(=N)N)NC(=O)[C@@H](CC(C)C)NC(=O)CNC(=O)[C@@H](Cc1ccccc1)NC(=O)CNC(=O)[C@@H](Cc1ccc(O)cc1)NC(=O)CNC(=O)[C@@H](CCCCN)NC(=O)[C@H](NC(=O)[C@@H](Cc1ccccc1)NC(=O)[C@H](NC(=O)[C@@H](CC(=O)O)NC(=O)[C@H](N)CCCNC(=N)N)C(C)C)[C@H](C)O)[C@H](C)CC)C(=O)N[C@H](Cc1c[nH]c2ccccc12)C(=O)N[C@H](Cc1ccccc1)C(=O)N[C@H](CCC(N)=O)C(=O)N[C@H](CC(N)=O)C(=O)N[C@H](CCCNC(=N)N)C(=O)N[C@H](CCCNC(=N)N)C(=O)N[C@H](CCSC)C(=O)N[C@H](CCCCN)C(=O)N[C@H](Cc1c[nH]c2ccccc12)C(=O)N[C@H](CCCCN)C(=O)N[C@H](CCCCN)C(=O)O [D-ΔN-Ter-Antp] (H-[dR][dD][dV][dF][dT][dK]G[dY]G[dF]G[dL][dR][dQ][dI][dK][dI][dW][dF][dQ][dN][dR][dR][dM][dK][dW][dK][dK]-OH; N-terminus and C-terminus assumed),mitochondrial membrane potential (TMRM fluorescence),decrease in ΔΨm
